Results published in EP4741379A1, “CLASS OF PROGRAMMED CELL DEATH INHIBITORS, PREPARATION METHOD THEREFOR AND USE THEREOF” (SHANGHAI INSTITUTE OF ORGANIC CHEMISTRY, CHINESE ACADEMY OF …, priority 2023, dated 2025).
Like-named read-outs stand apart in the source and are kept apart here.

Assays:
[1] = test system: FADD-deficient Jurkat cells; assay: TNF-induced programmed necrosis of FADD-deficient Jurkat cells (Cell Titer-Glo viability); assay type: cell-based, human; details: Homo sapiens, Jurkat
Protocol: (§1) The biological test protocol is adopted to test effects of the compound on TNF-induced programmed necrosis of FADD (Fas-associated death domain)-deficient Jurkat cells and L929 cells.
(§2) Two different stimulation methods were used: treating with tumor necrosis factor (TNFα) alone, or treating with TNFα in combination of mitochondrial-derived cysteine-aspartate activator (SMAC) SM164. Cell viability was determined by measuring chemiluminescence values, thereby assessing the bioactivity of the compounds in inhibiting programmed cell necrosis.
(§3) Method: FADD-deficient Jurkat cells: FADD-deficient Jurkat cells (human peripheral blood leukemia T cell line) were cultured in vitro. After reaching logarithmic growth phase, cells were collected and centrifuged at 1000 rpm for 5 minutes. A supernatant was discarded. A cell concentration was adjusted to 2.5×10^5/mL, and cells were seeded into a 384-well plate at 40 µL per well. In the corresponding wells, 5 µL of SM164 (50 nM) and compounds diluted with cell culture medium were added. After pre-treatment at 37°C for 1 hour, 5 µL of TNFα (50 ng/mL) diluted with cell culture medium was added to each well as a stimulation group, while 5 µL of culture medium was added as a control group. After the plate was incubated in a cell culture incubator (37°C, 5% CO2) for 14 hours, 15 µL of Cell Titer-Glo solution was added to each well. Then, the plate was incubated at room temperature for 30 minutes. Luminescence was measured to assess intracellular ATP levels. Cell viability was set at 100% for unstimulated DMSO control wells. […] The plate was placed in a cell culture incubator (37°C, 5% CO2) and cultured for 12 hours. In the corresponding wells, 5 µL of SM164 (500 nM) and compounds diluted with cell culture medium were added. After pre-treatment at 37°C for 1 hour, 5 µL of TNFα (500 ng/mL) diluted with cell culture medium was added to the wells as a stimulation group, while 5 µL of culture medium was added as a control group. After the plate was incubated in the cell incubator (37°C, 5% CO2) for 14 hours, 15 µL of Cell Titer-Glo solution was added to each well. Then, the plate was incubated at room temperature for 30 minutes, and luminescence was measured to assess intracellular ATP levels. Cell viability was set at 100% for unstimulated DMSO control wells. EC50 values of the compounds were calculated using Prism GraphPad statistical software.

L929 cells = assay: TNF-induced programmed necrosis of L929 cells (Cell Titer-Glo viability); assay type: cell-based, mouse; details: Mus musculus, L929
Protocol: as §1, §2, §3

[2] = stimulation with TNFα + SM164, read-out: EC50 (nM) FADD^-/- Jurkat cells (human-derived) TNFα+ SM164
[3] = stimulation with TNFα + SM164, read-out: EC50 (nM) L929 cells (mouse-derived) TNFα+ SM164
[4] = stimulation with TNFα alone, read-out: EC50 (nM) L929 cells (mouse-derived) TNFα
[5] = stimulation with TNFα alone, read-out: EC50 (nM) FADD^-/- Jurkat cells (human-derived) TNFα

Work on `C[C@H](NC(=O)c1nnn(C)c1Cc1ccccc1)c1ccc(C#Cc2cnc(N(C)C)cn2)cc1` [IRCBC-098] yielded an EC50 [1, 2] of 0.004 nM, an EC50 (L929 cells; [3]) of 0.062 nM and an EC50 (L929 cells; [4]) of 0.011 nM.
`C[C@H](NC(=O)c1nnn(C)c1Cc1ccccc1)c1ccc(C#Cc2cccc(N(C)C)n2)cc1` [IRCBC-099] showed an EC50 [1, 2] of 3.46 nM, an EC50 [1, 5] of 0.195 nM and an EC50 (L929 cells; [3]) of 0.734 nM. The EC50 (L929 cells; [4]) was 0.399 nM.
Compound `C[C@H](NC(=O)c1nnn(C)c1Cc1ccccc1)c1ccc(C#Cc2ccnc(N(C)C)n2)cc1` [IRCBC-100] has an EC50 [1, 2] of 1.79 nM, an EC50 [1, 5] of 0.084 nM and an EC50 (L929 cells; [3]) of 1.21 nM. For the same compound, the EC50 (L929 cells; [4]) was 0.561 nM.
For `C[C@H](NC(=O)c1nnn(C)c1Cc1ccccc1)c1ccc(C#Cc2ccnc(N(C)C)c2)cc1` [IRCBC-101], the EC50 [1, 2] was 0.582 nM, the EC50 [1, 5] was 0.036 nM and the EC50 (L929 cells; [3]) was 2.1 nM. It also gave an EC50 (L929 cells; [4]) of 0.405 nM.
Compound `C[C@H](NC(=O)c1nnn(C)c1Cc1ccccc1)c1ccc(C#Cc2ccc(N3CCC3)cn2)cc1` [IRCBC-103] has an EC50 [1, 2] of 0.001 nM, an EC50 (L929 cells; [3]) of 0.104 nM and an EC50 (L929 cells; [4]) of 0.044 nM.
`C[C@H](NC(=O)c1nnn(C)c1Cc1ccccc1)c1ccc(C#Cc2ccc(N3CCCC3)cn2)cc1` [IRCBC-104] was tested, and the EC50 [1, 2] was 0.002 nM, the EC50 (L929 cells; [3]) was 0.12 nM and the EC50 (L929 cells; [4]) was 0.071 nM.
Work on `C[C@H](NC(=O)c1nnn(C)c1Cc1ccccc1)c1ccc(C#Cc2csc(N(C)C)n2)cc1` [IRCBC-106] yielded an EC50 [1, 2] of 0.256 nM, an EC50 [1, 5] of 0.004 nM and an EC50 (L929 cells; [3]) of 0.3 nM. The EC50 (L929 cells; [4]) was 0.139 nM.
Compound `C[C@H](NC(=O)c1nnn(C)c1Cc1ccccc1)c1ccc(C#Cc2cnc(N(C)C)nc2)cc1` [IRCBC-119] has an EC50 [1, 2] of 5.79 nM, an EC50 [1, 5] of 0.164 nM and an EC50 (L929 cells; [3]) of 70.9 nM. It also gave an EC50 (L929 cells; [4]) of 20.9 nM.
`C[C@H](NC(=O)c1nnn(C)c1Cc1ccccc1)c1ccc(C#Cc2ccc(C(C)(C)O)cn2)cc1` [IRCBC-120] gave an EC50 [1, 2] of 0.079 nM, an EC50 [1, 5] of 0.002 nM and an EC50 (L929 cells; [3]) of 1.74 nM. The EC50 (L929 cells; [4]) was 0.438 nM.
For `C[C@H](NC(=O)c1nnn(C)c1Cc1ccccc1)c1ccc(C#Cc2ncccc2C#N)cc1` [IRCBC-121], the EC50 [1, 2] was 0.01 nM, the EC50 (L929 cells; [3]) was 0.069 nM and the EC50 (L929 cells; [4]) was 0.012 nM.
In the case of `C[C@H](NC(=O)c1nnn(C)c1Cc1ccccc1)c1ccc(C#Cc2ncccc2F)cc1` [IRCBC-122], the EC50 [1, 2] is reported as 0.035 nM, the EC50 (L929 cells; [3]) is reported as 0.032 nM and the EC50 (L929 cells; [4]) is reported as 0.026 nM.
`COc1cccnc1C#Cc1ccc([C@H](C)NC(=O)c2nnn(C)c2Cc2ccccc2)cc1` [IRCBC-123] was tested, and the EC50 [1, 2] was 0.004 nM, the EC50 (L929 cells; [3]) was 1.05 nM and the EC50 (L929 cells; [4]) was 0.246 nM.
`C[C@H](NC(=O)c1nnn(C)c1Cc1ccccc1)c1ccc(C#Cc2ncccc2N(C)C)cc1` [IRCBC-124] showed an EC50 [1, 2] of 0.034 nM, an EC50 (L929 cells; [3]) of 5.87 nM and an EC50 (L929 cells; [4]) of 1.93 nM.
`C[C@H](NC(=O)c1nnn(C)c1Cc1ccccc1)c1ccc(C#Cc2cc(N(C)C)ccn2)cc1` [IRCBC-125] gave an EC50 [1, 2] of 0.145 nM, an EC50 [1, 5] of 0.01 nM and an EC50 (L929 cells; [3]) of 1.68 nM. For the same compound, the EC50 (L929 cells; [4]) was 0.445 nM.
In the case of `C[C@H](NC(=O)c1nnn(C)c1Cc1ccccc1)c1ccc(C#Cc2cnc3cccnn23)cc1` [IRCBC-131], the EC50 [1, 2] is reported as 0.16 nM, the EC50 [1, 5] is reported as 0.003 nM and the EC50 (L929 cells; [3]) is reported as 8.75 nM. The EC50 (L929 cells; [4]) was 2.05 nM.
With `CCN1CCN(c2ccc(C#Cc3ccc([C@H](C)NC(=O)c4nnn(C)c4Cc4ccccc4)cc3)nc2)CC1` [IRCBC-134] the EC50 [1, 2] was 0.002 nM, the EC50 (L929 cells; [3]) was 0.005 nM and the EC50 (L929 cells; [4]) was 0.001 nM.
`CNc1cnc(C#Cc2ccc([C@H](C)NC(=O)c3nnn(C)c3Cc3ccccc3)cc2)cn1` [IRCBC-145] gave an EC50 [1, 2] of 0.007 nM, an EC50 (L929 cells; [3]) of 0.127 nM and an EC50 (L929 cells; [4]) of 0.063 nM.
For `CC(=O)Nc1ccc(C#Cc2ccc([C@H](C)NC(=O)c3nnn(C)c3Cc3ccccc3)cc2)nc1` [IRCBC-149], the EC50 [1, 2] was 0.003 nM, the EC50 (L929 cells; [3]) was 0.066 nM and the EC50 (L929 cells; [4]) was 0.045 nM.
`CC(C)N1CCN(c2ccc(C#Cc3ccc([C@H](C)NC(=O)c4nnn(C)c4Cc4ccccc4)cc3)nc2)CC1` [IRCBC-159] was tested, and the EC50 [1, 2] was 0.002 nM, the EC50 (L929 cells; [3]) was 0.006 nM and the EC50 (L929 cells; [4]) was 0.003 nM.
`C[C@H](NC(=O)c1nnn(C)c1Cc1ccccc1)c1ccc(C#Cc2ncc(NC3CC3)cn2)cc1` [IRCBC-271] gave an EC50 [1, 2] of 0.0111 nM and an EC50 (L929 cells; [3]) of 0.00618 nM.
